Drawing on patent US7214673B2, “Piperazine substituted aryl benzodiazepines and their use as dopamine receptor antagonists for the treatment of psychotic disorders” (Eli Lilly and Company, priority 2002, dated 2007), this text covers melting point for 30 compounds.

Where a name gives a salt, the structure may show the parent alone.

On to `COc1cccc(CC[C@H]2CN(C3=Nc4ccccc4Nc4sc(C)cc43)CCN2C)c1` (as salt: hydrochloride) [Example 186, 10-((S)-3-(2-(3-Methoxy-phenyl)-ethyl)-4-methyl-piperazin-1-yl)-2-methyl-4H-3-thia-4.9-diaza-benzo[f]azulene dihydrochloride], for which the melting point is 200 °C (dec.).

For `COc1ccccc1CC[C@H]1CN(C2=Nc3ccccc3Nc3sc(C)cc32)CCN1C` (as salt: hydrochloride) [Example 187, 10-((S)-3-(2-(2-Methoxy-phenyl)-ethyl)-4-methyl-piperazin-1-yl)-2-methyl-4H-3-thia-4,9-diaza-benzo[f]azulene dihydrochloride], the melting point is 213 °C (dec.).

Compound `CC(C)c1nc2c(s1)Nc1ccccc1N=C2N1CCN(C)[C@@H](Cc2ccccc2)C1` (as salt: hydrochloride) [Example 477, (S)-10-(3-Benzyl-4-methyl-piperazin-1-yl)-2-isopropyl-4H-3-thia-1,4,9-triaza-benzo[f]azulene dihydrochloride] showed a melting point of 235 °C.

Compound `Cc1nc2c(s1)Nc1ccccc1N=C2N1CCN(C)[C@@H](CCc2cccc(F)c2)C1` (as salt: hydrochloride) [Example 479, (S)-10-{3-[2-(3-Fluoro-phenyl)-ethyl]-4-methyl-piperazin-1-yl}-2-methyl-4H-3-thia-1,4,9-triaza-benzo[f]azulene dihydrochloride] gave a melting point of 230 °C.

`CC(C)c1nc2c(s1)Nc1ccccc1N=C2N1CCN(C)[C@@H](CCc2ccc(F)cc2)C1` (as salt: hydrochloride) [Example 481, (S)-10-{3-[2-(4-Fluoro-phenyl)-ethyl]-4-methyl-piperazin-1-yl}-2-isopropyl-4H-3-thia-1,4,9-triaza-benzo[f]azulene dihydrochloride] displayed a melting point of 228 °C.

As for `COc1ccc(CC[C@H]2CN(C3=Nc4cc(F)ccc4Nc4sc(C)cc43)CCN2C)cc1.Cl` (stereo in doubt), the melting point was in the range of 180 to 182 °C.

Turning to `Cc1cc2c(s1)Nc1ccccc1N=C2N1CCN[C@@H](CCc2cccc(Cl)c2)C1` [Example 387, 10-((S)-3-[2-(3-Chloro-phenyl)-ethyl]-piperazin-1-yl)-2-methyl-4H-3-thia-4,9-diaza-benzo[f]azulene], the melting point was 68 to 74 °C (dec.).

For `Cc1cc2c(s1)Nc1ccccc1N=C2N1CCN[C@@H](CCc2ccc(Cl)cc2)C1` [Example 388, 10-((S)-3-[2-(4-Chloro-phenyl)-ethyl]-piperazin-1-yl)-2-methyl-4H-3-thia-4,9-diaza-benzo[f]azulene], the melting point is 91 °C (dec.).

Regarding `Cc1cc2c(s1)Nc1ccccc1N=C2N1CCN[C@@H](CCc2ccccc2Cl)C1` [Example 389, 10-((S)-3-[2-(2-Chloro-phenyl)-ethyl]-piperazin-l-yl)-2-methyl-4H-3-thia-4,9-diaza-benzo[f]azulene], the melting point is 72 °C (dec.).

Regarding `Cc1cc2c(s1)Nc1ccccc1N=C2N1CCN(C)[C@@H](CCc2ccc(Cl)cc2)C1` [Example 390, 10-((S)-3-[2-(4-Chloro-phenyl)-ethyl]-4-methyl-piperazin-1-yl)-2-methyl-4H-3-thia-4,9-diaza-benzo[f]azulene], the melting point was 79 °C (dec.).

For `Cc1cc2c(s1)Nc1ccccc1N=C2N1CCN(C)[C@@H](CCc2cccc(Cl)c2)C1` [Example 391, 10-((S)-3-[2-(3-Chloro-phenyl)-ethyl]-4-methyl-piperazin-1-yl)-2-methyl-4H-3-thia-4,9-diaza-benzo[f]azulene], the melting point is 69 °C (dec.).

With `Cc1cc2c(s1)Nc1ccccc1N=C2N1CCN(C)[C@@H](CCc2ccccc2Cl)C1` [Example 392, 10-((S)-3-[2-(2-Chloro-phenyl)-ethyl]-4-methyl-piperazin-1-yl)-2-methyl-4H-3-thia-4,9-diaza-benzo[f]azulene], the melting point was 72 °C (dec.).

For the compound `Cc1cc2c(s1)Nc1ccccc1N=C2N1CCN[C@@H](CCc2ccc(C(F)(F)F)cc2)C1` [Example 393, 10-((S)-3-[2-(4-Trifluoromethyl-phenyl)-ethyl]-piperazin-1-yl)-2-methyl-4H-3-thia-4,9-diaza-benzo[f]azulene], the melting point was 78 °C (dec.).

As to `Cc1cc2c(s1)Nc1ccccc1N=C2N1CCN[C@@H](CCc2ccccc2C(F)(F)F)C1` [Example 394, 10-((S)-3-[2-(2-Trifluoromethyl-phenyl)-ethyl]-piperazin-1-yl)-2-methyl-4H-3-thia-4,9-diaza-benzo[f]azulene], the melting point is 73 °C (dec.).

Regarding `Cc1cc2c(s1)Nc1ccccc1N=C2N1CCN[C@@H](CCc2cccc(C(F)(F)F)c2)C1` [Example 395, 10-((S)-3-[2-(3-Trifluoromethyl-phenyl)-ethyl]-piperazin-1-yl)-2-methyl-4H-3-thia-4,9-diaza-benzo[f]azulene], the melting point is 69 °C (dec.).

Regarding `Cc1cc2c(s1)Nc1ccccc1N=C2N1CCN(C)[C@@H](CCc2ccc(C(F)(F)F)cc2)C1` [Example 396, 10-((S)-3-[2-(4-Trifluoromethyl-phenyl)-ethyl]-4-methyl-piperazin-1-yl)-2-methyl-4H-3-thia-4,9-diaza-benzo[f]azulene], the melting point is 72 °C (dec.).

With `Cc1cc2c(s1)Nc1ccccc1N=C2N1CCN(C)[C@@H](CCc2ccccc2C(F)(F)F)C1` [Example 397, 10-((S)-3-[2-(2-Trifluoromethyl-phenyl)-ethyl]-4-methyl-piperazin-1-yl)-2-methyl-4H-3-thia-4,9-diaza-benzo[f]azulene], the melting point is 68 °C (dec.).

In the case of `Cc1cc2c(s1)Nc1ccccc1N=C2N1CCN[C@@H](CCc2ccc(F)cc2F)C1` [Example 399, 10-((S)-3-[2-(2,4-Difluoro-phenyl)-ethyl]-piperazin-1-yl)-2-methyl-4H-3-thia-4,9-diaza-benzo[f]azulene], the melting point is 69 °C (dec.).

Regarding `CC(C)(C)c1cc2c(s1)Nc1ccccc1N=C2N1CCN[C@@H](CCc2ccccc2)C1` [Example 445, (S)-2-tert-Butyl-10-(3-phenethyl-piperazin-1-yl)-4H-3-thia-4,9-diaza-benzo[f]azulene], the melting point fell in the range of 93 to 96 °C.

Compound `Cc1nc2c(s1)Nc1ccccc1N=C2N1CCN[C@@H](Cc2ccccc2)C1` [Example 462] showed a melting point of 250 to 252 °C.

`Cc1ccc2c(c1)Nc1ccccc1N=C2N1CCN(C)CC1` [Example 574, 3-Methyl-11-(4-methyl-piperazin-1-yl)-3-methyl-5H-dibenzo[b,e][1,4]diazepine]: the melting point was 84 °C (dec.).

Compound `Cc1ccc2c(c1)Nc1ccccc1N=C2N1CCN[C@@H](CCc2ccccc2)C1` [Example 575, 3-Methyl-11-[(S)-3-phenethyl-piperazin-1-yl]-5H-dibenzo[b,e][1,4]diazepine] yielded a melting point of 64 to 80 °C.

For the compound `Cc1ccc2c(c1)Nc1ccccc1N=C2N1CCN(C)[C@@H](CCc2ccccc2)C1` [Example 576, 3-Methyl-11-[4-methyl-(S)-3-phenethyl-piperazin-1-yl]-5H-dibenzo[b,e][1,4]diazepine], the melting point is 65 °C (dec.).

Turning to `Cc1ccc2c(c1)Nc1ccccc1N=C2N1CCN[C@@H](CCc2cccc(F)c2)C1` [Example 577, 11-{(S)-3-[2-(3-Fluoro-phenyl)-ethyl]-piperazin-1-yl}-3-methyl-5H-dibenzo[b,e][1,4]diazepine], the melting point was 81 °C (dec.).

With `Cc1ccc2c(c1)Nc1ccccc1N=C2N1CCN(C)[C@@H](CCc2cccc(F)c2)C1` [Example 578, 11-{(S)-3-[2-(3-Fluoro-phenyl)-ethyl]-4-methyl-piperazin-1-yl}-3-methyl-5H-dibenzo[b,e][1,4]diazepine], the melting point was 63 °C (dec.).

As for `Cc1ccc2c(c1)C(N1CCN(C)CC1)=Nc1ccccc1N2` [Example 579], the melting point is 170 to 177 °C (dec.).

Consider `Cc1ccc2c(c1)C(N1CCN[C@@H](CCc3ccccc3)C1)=Nc1ccccc1N2` [Example 580, 2-Methyl-11-[(S)-3-phenethyl-piperazin-1-yl]-5H-dibenzo[b,e][1,4]diazepine], for which the melting point was 67 °C (dec.).

As for `Cc1ccc2c(c1)C(N1CCN(C)[C@@H](CCc3ccccc3)C1)=Nc1ccccc1N2` [Example 581, 2-Methyl-11-[4-methyl-(S)-3-phenethyl-piperazin-1-yl]-5H-dibenzo[b,e][1,4]diazepine], the melting point is 65 °C (dec.).

Regarding `Clc1ccc2c(c1)N=C(N1CCN[C@@H](Cc3ccccc3)C1)c1ccccc1N2` [Example 585, 11-(3-(S)-Benzyl-piperazin-1-yl)-8-chloro-5H-dibenzo[b,e][1,4]diazepine], the melting point is 79 to 92 °C.

As to `CN1CCN(C2=Nc3ccccc3Nc3ccc(C(F)(F)F)cc32)CC1` [Example 606, 11-(4-Methyl-piperazin-1-yl)-2-trifluoromethyl-5H-dibenzo[b,e][1,4]diazepine], the melting point fell in the range of 68 to 72 °C.

By melting point is commonly meant the temperature of the solid-liquid transition.
